PubChem BioAssay (NCI)
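Cultured in 96-well plates, cells were exposed to test compound for 48 hours across five concentrations. Abbreviation: GI50, concentration required for 50% inhibition of growth. The concentration for full growth arrest is given as TGI.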

How the values were obtained:
Experiment in all cases: DTP human tumour cell line panel, 48 h
HL-60(TB) leukemia = tested on: HL-60(TB) leukemia
SK-OV-3 ovarian = tested on: SK-OV-3 ovarian
EKVX NSCLC = tested on: EKVX NSCLC
U251 CNS = tested on: U251 CNS
K-562 leukemia = tested on: K-562 leukemia
NCI-H522 lung = tested on: NCI-H522 lung
MDA-MB-468 breast = tested on: MDA-MB-468 breast
HCC-2998 colon = tested on: HCC-2998 colon
MDA-MB-231 breast = tested on: MDA-MB-231 breast
CCRF-CEM leukemia = tested on: CCRF-CEM leukemia
OVCAR-8 ovarian = tested on: OVCAR-8 ovarian
OVCAR-3 ovarian = tested on: OVCAR-3 ovarian
SK-MEL-5 melanoma = tested on: SK-MEL-5 melanoma
BT-549 breast = tested on: BT-549 breast
HOP-62 NSCLC = tested on: HOP-62 NSCLC
T-47D breast = tested on: T-47D breast
SK-MEL-28 melanoma = tested on: SK-MEL-28 melanoma
RPMI-8226 leukemia = tested on: RPMI-8226 leukemia
RXF 393 renal = tested on: RXF 393 renal
DU-145 prostate = tested on: DU-145 prostate
LOX IMVI melanoma = tested on: LOX IMVI melanoma
ACHN renal = tested on: ACHN renal
SR leukemia = tested on: SR leukemia
MALME-3M melanoma = tested on: MALME-3M melanoma
M14 melanoma = tested on: M14 melanoma
KM12 colon = tested on: KM12 colon
MCF7 breast = tested on: MCF7 breast
MOLT-4 leukemia = tested on: MOLT-4 leukemia
NCI-H460 lung = tested on: NCI-H460 lung
UACC-257 melanoma = tested on: UACC-257 melanoma
OVCAR-4 ovarian = tested on: OVCAR-4 ovarian
SF-268 CNS = tested on: SF-268 CNS
SN12C renal = tested on: SN12C renal
HCT-116 colon = tested on: HCT-116 colon
SNB-75 CNS = tested on: SNB-75 CNS
COLO 205 colon = tested on: COLO 205 colon
A549 NSCLC = tested on: A549 NSCLC
CAKI-1 renal = tested on: CAKI-1 renal
HT29 colon = tested on: HT29 colon
OVCAR-5 ovarian = tested on: OVCAR-5 ovarian
UACC-62 melanoma = tested on: UACC-62 melanoma
HCT-15 colon = tested on: HCT-15 colon
IGROV1 ovarian = tested on: IGROV1 ovarian
786-0 renal = tested on: 786-0 renal
NCI-H226 lung = tested on: NCI-H226 lung
PC-3 prostate = tested on: PC-3 prostate
HOP-92 NSCLC = tested on: HOP-92 NSCLC
HS 578T breast = tested on: HS 578T breast
SK-MEL-2 melanoma = tested on: SK-MEL-2 melanoma
NCI/ADR-RES ovarian = tested on: NCI/ADR-RES ovarian
SW-620 colon = tested on: SW-620 colon
NCI-H23 lung = tested on: NCI-H23 lung
UO-31 renal = tested on: UO-31 renal
SF-539 CNS = tested on: SF-539 CNS
SNB-19 CNS = tested on: SNB-19 CNS
A498 renal = tested on: A498 renal
MDA-MB-435 = tested on: MDA-MB-435
TK-10 renal = tested on: TK-10 renal
SF-295 CNS = tested on: SF-295 CNS

## C=C1CCC2C3(C)COC(c4cc(F)cc(F)c4)OC3CCC2(C)C1C/C=C1/C(=O)OCC1O (stereo not drawn)
HL-60(TB) leukemia
  GI50: 1350 nM
  TGI: 3590 nM
SK-OV-3 ovarian
  GI50: 9790 nM
  TGI: 22000 nM
EKVX NSCLC
  GI50: 2500 nM
  TGI: 6500 nM
U251 CNS
  GI50: 1580 nM
  TGI: 3030 nM
K-562 leukemia
  GI50: 1980 nM
  TGI: 6170 nM
NCI-H522 lung
  GI50: 1640 nM
  TGI: 3230 nM
MDA-MB-468 breast
  GI50: 1730 nM
  TGI: 3160 nM
HCC-2998 colon
  GI50: 1660 nM
  TGI: 3160 nM
MDA-MB-231 breast
  GI50: 1670 nM
  TGI: 3250 nM
CCRF-CEM leukemia
  GI50: 649 nM
  TGI: 4190 nM
OVCAR-8 ovarian
  GI50: 1770 nM
  TGI: 4520 nM
OVCAR-3 ovarian
  GI50: 1620 nM
  TGI: 3120 nM
SK-MEL-5 melanoma
  GI50: 1750 nM
  TGI: 3210 nM
BT-549 breast
  GI50: 1410 nM
  TGI: 2730 nM
HOP-62 NSCLC
  GI50: 1780 nM
  TGI: 3440 nM
T-47D breast
  GI50: 1430 nM
  TGI: 3100 nM
SK-MEL-28 melanoma
  GI50: 1770 nM
  TGI: 3210 nM
RPMI-8226 leukemia
  GI50: 2050 nM
  TGI: 5450 nM
RXF 393 renal
  GI50: 1730 nM
  TGI: 3230 nM
DU-145 prostate
  GI50: 2210 nM
  TGI: 5110 nM
LOX IMVI melanoma
  GI50: 1480 nM
  TGI: 2790 nM
ACHN renal
  GI50: 1700 nM
  TGI: 3070 nM
SR leukemia
  GI50: 2080 nM
  TGI: 5230 nM
MALME-3M melanoma
  GI50: 1690 nM
  TGI: 3150 nM
M14 melanoma
  GI50: 1740 nM
  TGI: 3390 nM
KM12 colon
  GI50: 1900 nM
  TGI: 3860 nM
MCF7 breast
  GI50: 1180 nM
  TGI: 2600 nM
MOLT-4 leukemia
  GI50: 2580 nM
  TGI: 7520 nM
NCI-H460 lung
  GI50: 1620 nM
  TGI: 3200 nM
UACC-257 melanoma
  GI50: 1730 nM
  TGI: 3440 nM
OVCAR-4 ovarian
  GI50: 1850 nM
  TGI: 4090 nM
SF-268 CNS
  GI50: 1840 nM
  TGI: 3690 nM
SN12C renal
  GI50: 1520 nM
  TGI: 2890 nM
HCT-116 colon
  GI50: 1430 nM
  TGI: 2930 nM
SNB-75 CNS
  GI50: 1140 nM
  TGI: 2400 nM
COLO 205 colon
  GI50: 1860 nM
  TGI: 3320 nM
A549 NSCLC
  GI50: 2550 nM
  TGI: 8390 nM
CAKI-1 renal
  GI50: 1620 nM
  TGI: 3010 nM
HT29 colon
  GI50: 1790 nM
  TGI: 3610 nM
OVCAR-5 ovarian
  GI50: 1590 nM
  TGI: 3210 nM
UACC-62 melanoma
  GI50: 1650 nM
  TGI: 3290 nM
HCT-15 colon
  GI50: 1440 nM
  TGI: 2980 nM
IGROV1 ovarian
  GI50: 1810 nM
  TGI: 3530 nM
786-0 renal
  GI50: 1730 nM
  TGI: 3130 nM
NCI-H226 lung
  GI50: 1730 nM
  TGI: 3420 nM
PC-3 prostate
  GI50: 1750 nM
  TGI: 3600 nM
HOP-92 NSCLC
  GI50: 1770 nM
  TGI: 3820 nM
HS 578T breast
  GI50: 2110 nM
  TGI: 5610 nM
SK-MEL-2 melanoma
  GI50: 1790 nM
  TGI: 3380 nM
NCI/ADR-RES ovarian
  GI50: 1820 nM
  TGI: 3670 nM
SW-620 colon
  GI50: 1350 nM
  TGI: 2810 nM
NCI-H23 lung
  GI50: 1880 nM
  TGI: 3750 nM
UO-31 renal
  GI50: 1410 nM
  TGI: 2700 nM
SF-539 CNS
  GI50: 1660 nM
  TGI: 3020 nM
SNB-19 CNS
  GI50: 1730 nM
  TGI: 3430 nM
A498 renal
  GI50: 3410 nM
  TGI: 15600 nM
MDA-MB-435
  GI50: 1550 nM
  TGI: 3100 nM
TK-10 renal
  GI50: 1680 nM
  TGI: 3250 nM
SF-295 CNS
  GI50: 1560 nM
  TGI: 2980 nM
